Measured values as given in patent US8048825B2, “Haloalkylsulfonanilide derivatives or salt thereof, herbicide comprising the derivatives as active ingredient, and use of the herbicide” (Nihon Nohyaku Co., Ltd., priority 2006, dated 2011).

What was measured:
Format in all cases: in vivo
[1] = tested on: Lindernia procumbens; assay: Herbicidal efficacy on paddy field weeds of pre-emergence stage (Pre), Test Example 1; settings: 1000 g/ha as active ingredient, examined after 21 days
In short: (§1)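 Clay-loam pots sown with Scirpus juncoides, covered with soil containing Lindernia procumbens seed, flooded to 5 cm. Next day formulated compound applied dropwise to water at 1000 g/ha a.i. Greenhouse-grown; growth inhibition versus untreated scored 0–5 after 21 days.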

[2] = tested on: Scirpus juncoides; assay: as above; settings: 1000 g/ha as active ingredient, examined after 21 days
In short: as §1

[3] = tested on: Echinochloa crus-galli; assay: Herbicidal effect on paddy field weeds of post-emergence stage (Post), Test Example 2; settings: one-leaf stage, 1000 g/ha as active ingredient, examined after 21 days
In short: (§2)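 Scirpus juncoides and Echinochloa crus-galli sown in clay loam, with Lindernia procumbens seed in the soil cover, under 5 cm flooding in greenhouse. At one-leaf stage, 1000 g/ha active ingredient applied to pot water. Efficacy scored visually 0–5 against untreated plants at 21 days after treatment.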

[4] = tested on: Lindernia procumbens; assay: as above; settings: one-leaf stage, 1000 g/ha as active ingredient, examined after 21 days
In short: as §2

[5] = tested on: Scirpus juncoides; assay: as above; settings: one-leaf stage, 1000 g/ha as active ingredient, examined after 21 days
In short: as §2

`COC(=O)N(c1ccccc1CN1CCC(C(F)(F)F)(C(F)(F)F)OC1=O)S(=O)(=O)C(F)(F)F` [Compound 1-339] was tested, and the “Lindernia procumbens pre (herbicidal effect)” value (“Lindernia procumbens pre” for short) [1] was 5 (100% herbicidal effect, phytotoxicity), the “Scirpus juncoides pre (herbicidal effect)” value (shortened to “Scirpus juncoides pre”) [2] was 4 (90%-99% herbicidal effect, phytotoxicity) and the “Echinochloa crus-galli post (herbicidal effect)” value (“Echinochloa crus-galli post” for short) [3] was 4 (90%-99% herbicidal effect, phytotoxicity). The “Lindernia procumbens post (herbicidal effect)” value (from here on “Lindernia procumbens post”) [4] was 5 (100% herbicidal effect, phytotoxicity) and the “Scirpus juncoides post (herbicidal effect)” value (“Scirpus juncoides post” below) [5] was 4 (90%-99% herbicidal effect, phytotoxicity).

For `CC(C)COC(=O)N(c1ccccc1CN1CCC(C(F)(F)F)(C(F)(F)F)OC1=O)S(=O)(=O)C(F)(F)F` [Compound 1-343], the “Lindernia procumbens pre” value [1] was 5 (100% herbicidal effect, phytotoxicity), the “Scirpus juncoides pre” value [2] was 5 (100% herbicidal effect, phytotoxicity) and the “Echinochloa crus-galli post” value [3] was 4 (90%-99% herbicidal effect, phytotoxicity). For the same compound, the “Lindernia procumbens post” value [4] was 5 (100% herbicidal effect, phytotoxicity) and the “Scirpus juncoides post” value [5] was 4 (90%-99% herbicidal effect, phytotoxicity).

For `COC(=O)N(c1ccccc1CN1CCC(c2c(C)cccc2C)OC1=O)S(=O)(=O)C(F)(F)F` (stereo not shown) [Compound 1-361], the “Lindernia procumbens pre” value [1] was 5 (100% herbicidal effect, phytotoxicity), the “Scirpus juncoides pre” value [2] was 5 (100% herbicidal effect, phytotoxicity) and the “Echinochloa crus-galli post” value [3] was 4 (90%-99% herbicidal effect, phytotoxicity). For the same compound, the “Lindernia procumbens post” value [4] was 5 (100% herbicidal effect, phytotoxicity) and the “Scirpus juncoides post” value [5] was 4 (90%-99% herbicidal effect, phytotoxicity).

For `CCOC(=O)N(c1ccccc1CN1CCC(c2c(C)cccc2C)OC1=O)S(=O)(=O)C(F)(F)F` (stereo not shown) [Compound 1-362], the “Lindernia procumbens pre” value [1] was 5 (100% herbicidal effect, phytotoxicity), the “Scirpus juncoides pre” value [2] was 4 (90%-99% herbicidal effect, phytotoxicity) and the “Echinochloa crus-galli post” value [3] was 4 (90%-99% herbicidal effect, phytotoxicity). The “Lindernia procumbens post” value [4] was 5 (100% herbicidal effect, phytotoxicity) and the “Scirpus juncoides post” value [5] was 4 (90%-99% herbicidal effect, phytotoxicity).

In the case of `CC1(C2(C)CCN(Cc3ccccc3NS(=O)(=O)C(F)(F)F)C(=O)O2)CC1` (stereo not shown) [Compound 1-371], the “Lindernia procumbens pre” value [1] is reported as 5 (100% herbicidal effect, phytotoxicity), the “Scirpus juncoides pre” value [2] is reported as 5 (100% herbicidal effect, phytotoxicity) and the “Echinochloa crus-galli post” value [3] is reported as 4 (90%-99% herbicidal effect, phytotoxicity). The “Lindernia procumbens post” value [4] was 5 (100% herbicidal effect, phytotoxicity) and the “Scirpus juncoides post” value [5] was 4 (90%-99% herbicidal effect, phytotoxicity).

For `CCOC(=O)N(c1ccccc1CN1CCC(C)(C2(C)CC2)OC1=O)S(=O)(=O)C(F)(F)F` (stereo not shown) [Compound 1-373], the “Lindernia procumbens pre” value [1] was 5 (100% herbicidal effect, phytotoxicity), the “Scirpus juncoides pre” value [2] was 5 (100% herbicidal effect, phytotoxicity) and the “Echinochloa crus-galli post” value [3] was 4 (90%-99% herbicidal effect, phytotoxicity). For the same compound, the “Lindernia procumbens post” value [4] was 5 (100% herbicidal effect, phytotoxicity) and the “Scirpus juncoides post” value [5] was 4 (90%-99% herbicidal effect, phytotoxicity).

In the case of `CC(C)COC(=O)N(c1ccccc1CN1CCC(C)(C2(C)CC2)OC1=O)S(=O)(=O)C(F)(F)F` (stereo not shown) [Compound 1-376], the “Lindernia procumbens pre” value [1] is reported as 5 (100% herbicidal effect, phytotoxicity), the “Scirpus juncoides pre” value [2] is reported as 5 (100% herbicidal effect, phytotoxicity) and the “Echinochloa crus-galli post” value [3] is reported as 4 (90%-99% herbicidal effect, phytotoxicity). For the same compound, the “Lindernia procumbens post” value [4] was 5 (100% herbicidal effect, phytotoxicity) and the “Scirpus juncoides post” value [5] was 4 (90%-99% herbicidal effect, phytotoxicity).

For `CC1(C2CCC2)CCN(Cc2ccccc2NS(=O)(=O)C(F)(F)F)C(=O)O1` (stereo not shown) [Compound 1-382], the “Lindernia procumbens pre” value [1] was 5 (100% herbicidal effect, phytotoxicity), the “Scirpus juncoides pre” value [2] was 5 (100% herbicidal effect, phytotoxicity) and the “Echinochloa crus-galli post” value [3] was 4 (90%-99% herbicidal effect, phytotoxicity). For the same compound, the “Lindernia procumbens post” value [4] was 5 (100% herbicidal effect, phytotoxicity) and the “Scirpus juncoides post” value [5] was 4 (90%-99% herbicidal effect, phytotoxicity).

For `CCOC(=O)N(c1ccccc1CN1CCC(C)(C2CCC2)OC1=O)S(=O)(=O)C(F)(F)F` (stereo not shown) [Compound 1-384], the “Lindernia procumbens pre” value [1] was 5 (100% herbicidal effect, phytotoxicity), the “Scirpus juncoides pre” value [2] was 5 (100% herbicidal effect, phytotoxicity) and the “Echinochloa crus-galli post” value [3] was 4 (90%-99% herbicidal effect, phytotoxicity). For the same compound, the “Lindernia procumbens post” value [4] was 5 (100% herbicidal effect, phytotoxicity) and the “Scirpus juncoides post” value [5] was 4 (90%-99% herbicidal effect, phytotoxicity).

For `CC(C)COC(=O)N(c1ccccc1CN1CCC(C)(C2CCC2)OC1=O)S(=O)(=O)C(F)(F)F` (stereo not shown) [Compound 1-387], the “Lindernia procumbens pre” value [1] was 5 (100% herbicidal effect, phytotoxicity), the “Scirpus juncoides pre” value [2] was 5 (100% herbicidal effect, phytotoxicity) and the “Echinochloa crus-galli post” value [3] was 5 (100% herbicidal effect, phytotoxicity). The “Lindernia procumbens post” value [4] was 5 (100% herbicidal effect, phytotoxicity) and the “Scirpus juncoides post” value [5] was 5 (100% herbicidal effect, phytotoxicity).

For `CC(C)(C)COC(=O)N(c1ccccc1CN1CCC(C)(C2CCC2)OC1=O)S(=O)(=O)C(F)(F)F` (stereo not shown) [Compound 1-388], the “Lindernia procumbens pre” value [1] was 5 (100% herbicidal effect, phytotoxicity), the “Scirpus juncoides pre” value [2] was 5 (100% herbicidal effect, phytotoxicity) and the “Echinochloa crus-galli post” value [3] was 5 (100% herbicidal effect, phytotoxicity). For the same compound, the “Lindernia procumbens post” value [4] was 5 (100% herbicidal effect, phytotoxicity) and the “Scirpus juncoides post” value [5] was 4 (90%-99% herbicidal effect, phytotoxicity).

`COC(=O)N(c1ccccc1CN1CCC(C)(c2ccccc2C(F)(F)F)OC1=O)S(=O)(=O)C(F)(F)F` (stereo not shown) [Compound 1-394] was tested, and the “Lindernia procumbens pre” value [1] was 5 (100% herbicidal effect, phytotoxicity), the “Scirpus juncoides pre” value [2] was 5 (100% herbicidal effect, phytotoxicity) and the “Echinochloa crus-galli post” value [3] was 4 (90%-99% herbicidal effect, phytotoxicity). The “Lindernia procumbens post” value [4] was 5 (100% herbicidal effect, phytotoxicity) and the “Scirpus juncoides post” value [5] was 4 (90%-99% herbicidal effect, phytotoxicity).

For `CCOC(=O)N(c1ccccc1CN1CCC(C)(c2ccccc2C(F)(F)F)OC1=O)S(=O)(=O)C(F)(F)F` (stereo not shown) [Compound 1-395], the “Lindernia procumbens pre” value [1] was 5 (100% herbicidal effect, phytotoxicity), the “Scirpus juncoides pre” value [2] was 5 (100% herbicidal effect, phytotoxicity) and the “Echinochloa crus-galli post” value [3] was 4 (90%-99% herbicidal effect, phytotoxicity). For the same compound, the “Lindernia procumbens post” value [4] was 5 (100% herbicidal effect, phytotoxicity) and the “Scirpus juncoides post” value [5] was 4 (90%-99% herbicidal effect, phytotoxicity).

For `CCOC(=O)N(c1ccccc1CN1CCC(C)(c2ccccc2C)OC1=O)S(=O)(=O)C(F)(F)F` (stereo not shown) [Compound 1-406], the “Lindernia procumbens pre” value [1] was 5 (100% herbicidal effect, phytotoxicity), the “Scirpus juncoides pre” value [2] was 5 (100% herbicidal effect, phytotoxicity) and the “Echinochloa crus-galli post” value [3] was 5 (100% herbicidal effect, phytotoxicity). The “Lindernia procumbens post” value [4] was 5 (100% herbicidal effect, phytotoxicity) and the “Scirpus juncoides post” value [5] was 4 (90%-99% herbicidal effect, phytotoxicity).

`CCC1(C(F)(F)F)CCN(Cc2ccccc2N(C(=O)OCCCl)S(=O)(=O)C(F)(F)F)C(=O)O1` (stereo not shown) [Compound 1-415] was tested, and the “Lindernia procumbens pre” value [1] was 5 (100% herbicidal effect, phytotoxicity), the “Scirpus juncoides pre” value [2] was 5 (100% herbicidal effect, phytotoxicity) and the “Echinochloa crus-galli post” value [3] was 5 (100% herbicidal effect, phytotoxicity). The “Lindernia procumbens post” value [4] was 5 (100% herbicidal effect, phytotoxicity) and the “Scirpus juncoides post” value [5] was 4 (90%-99% herbicidal effect, phytotoxicity).

For `CCC1(CC(C)C)CCN(Cc2ccccc2NS(=O)(=O)C(F)(F)F)C(=O)O1` (stereo not shown) [Compound 1-417], the “Lindernia procumbens pre” value [1] was 5 (100% herbicidal effect, phytotoxicity), the “Scirpus juncoides pre” value [2] was 5 (100% herbicidal effect, phytotoxicity) and the “Echinochloa crus-galli post” value [3] was 4 (90%-99% herbicidal effect, phytotoxicity). For the same compound, the “Lindernia procumbens post” value [4] was 5 (100% herbicidal effect, phytotoxicity) and the “Scirpus juncoides post” value [5] was 4 (90%-99% herbicidal effect, phytotoxicity).

With `CC1(C)CCN(Cc2ccccc2N(C(=O)Oc2ccccc2)S(=O)(=O)C(F)(F)F)C(=O)O1` [Compound 1-506] the “Lindernia procumbens pre” value [1] was 5 (100% herbicidal effect, phytotoxicity), the “Scirpus juncoides pre” value [2] was 5 (100% herbicidal effect, phytotoxicity) and the “Echinochloa crus-galli post” value [3] was 4 (90%-99% herbicidal effect, phytotoxicity). The “Lindernia procumbens post” value [4] was 5 (100% herbicidal effect, phytotoxicity) and the “Scirpus juncoides post” value [5] was 4 (90%-99% herbicidal effect, phytotoxicity).
